Measured values as given in patent publication US8530667B2, “Herbicides” (Syngenta Limited, priority 2007, dated 2013).

Tests used:
Format in all cases: in vivo
[1] = test system: Alopecurus myosuroides (ALOMY); assay: Example A pre-emergence herbicidal activity, glasshouse pot test; settings: Rate 250 g/ha, evaluated 19 or 20 days later, read-out: Pre-Emergence Activity ALOMY (100=total damage to plant; 0=no damage to plant)
Protocol: (§1) Seeds of a variety of test species were sown in standard soil in pots. After cultivation for one day (pre-emergence) or after 10 days cultivation (post-emergence) under controlled conditions in a glasshouse, the plants were sprayed with an aqueous spray solution derived from the formulation of the technical active ingredient in 0.6 ml acetone and 45 ml formulation solution containing 10.6% Emulsogen EL (Registry number 61791-12-6), 42.2% N-methylpyrrolidone, 42.2% dipropylene glycol monomethyl ether (Registry number 34590-94-8) and 0.2% X-77 (Registry number 11097-66-8). The test plants were then grown in a greenhouse under optimum conditions until, 14 or 15 days later for post-emergence and 19 or 20 days for pre-emergence, the test was evaluated (100=total damage to plant; 0=no damage to plant). Alopecurus myosuroides (ALOMY), Avena fatua (AVEFA), Lolium perenne (LOLPE), Setaria faberi (SETFA), Digitaria sanguinalis (DIGSA), Echinochloa crus-galli (ECHCG)

[2] = test system: Avena fatua (AVEFA); assay: as above; settings: Rate 250 g/ha, evaluated 19 or 20 days later, read-out: Pre-Emergence Activity AVEFA (100=total damage to plant; 0=no damage to plant)
Protocol: as §1

[3] = test system: Digitaria sanguinalis (DIGSA); assay: as above; settings: Rate 250 g/ha, evaluated 19 or 20 days later, read-out: Pre-Emergence Activity DIGSA (100=total damage to plant; 0=no damage to plant)
Protocol: as §1

[4] = test system: Echinochloa crus-galli (ECHCG); assay: as above; settings: Rate 250 g/ha, evaluated 19 or 20 days later, read-out: Pre-Emergence Activity ECHCG (100=total damage to plant; 0=no damage to plant)
Protocol: as §1

[5] = test system: Lolium perenne (LOLPE); assay: as above; settings: Rate 250 g/ha, evaluated 19 or 20 days later, read-out: Pre-Emergence Activity LOLPE (100=total damage to plant; 0=no damage to plant)
Protocol: as §1

[6] = test system: Setaria faberi (SETFA); assay: as above; settings: Rate 250 g/ha, evaluated 19 or 20 days later, read-out: Pre-Emergence Activity SETFA (100=total damage to plant; 0=no damage to plant)
Protocol: as §1

[7] = test system: Alopecurus myosuroides (ALOMY); assay: Example A post-emergence herbicidal activity, glasshouse pot test; settings: Rate 125 g/ha, evaluated 14 or 15 days later, read-out: Post-Emergence Activity ALOMY (100=total damage to plant; 0=no damage to plant)
Protocol: as §1

[8] = test system: Avena fatua (AVEFA); assay: as above; settings: Rate 125 g/ha, evaluated 14 or 15 days later, read-out: Post-Emergence Activity AVEFA (100=total damage to plant; 0=no damage to plant)
Protocol: as §1

[9] = test system: Digitaria sanguinalis (DIGSA); assay: as above; settings: Rate 125 g/ha, evaluated 14 or 15 days later, read-out: Post-Emergence Activity DIGSA (100=total damage to plant; 0=no damage to plant)
Protocol: as §1

[10] = test system: Echinochloa crus-galli (ECHCG); assay: as above; settings: Rate 125 g/ha, evaluated 14 or 15 days later, read-out: Post-Emergence Activity ECHCG (100=total damage to plant; 0=no damage to plant)
Protocol: as §1

[11] = test system: Lolium perenne (LOLPE); assay: as above; settings: Rate 125 g/ha, evaluated 14 or 15 days later, read-out: Post-Emergence Activity LOLPE (100=total damage to plant; 0=no damage to plant)
Protocol: as §1

[12] = test system: Setaria faberi (SETFA); assay: as above; settings: Rate 125 g/ha, evaluated 14 or 15 days later, read-out: Post-Emergence Activity SETFA (100=total damage to plant; 0=no damage to plant)
Protocol: as §1

[13] = test system: Alopecurus myosuroides (ALOMY); assay: Example B pre-emergence herbicidal activity, glasshouse pot test; settings: 312 h, Rate 250 g/ha, evaluated after 13 days, read-out: Pre-Emergence Activity ALOMY (100=total damage to plant; 0=no damage to plant)
Procedure, shortened: (§2)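 Potted plants sprayed one day after sowing (pre-emergence) or after 8 days' growth (post-emergence) with aqueous solution from acetone/water (50:50) containing 0.5% Tween 20. Glasshouse at 24/16° C. day/night, 14 h light, 65% humidity. Damage scored after 13 days, 0 = none to 100 = total.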

[14] = test system: Amaranthus retoflexus (AMARE); assay: as above; settings: Amaranthus retroflexus, 312 h, Rate 250 g/ha, evaluated after 13 days, read-out: Pre-Emergence Activity AMARE (100=total damage to plant; 0=no damage to plant)
Procedure, shortened: as §2

[15] = test system: Avena fatua (AVEFA); assay: as above; settings: 312 h, Rate 250 g/ha, evaluated after 13 days, read-out: Pre-Emergence Activity AVEFA (100=total damage to plant; 0=no damage to plant)
Procedure, shortened: as §2

[16] = test system: Echinochloa crus-galli (ECHCG); assay: as above; settings: 312 h, Rate 250 g/ha, evaluated after 13 days, read-out: Pre-Emergence Activity ECHCG (100=total damage to plant; 0=no damage to plant)
Procedure, shortened: as §2

[17] = test system: Setaria faberi (SETFA); assay: as above; settings: 312 h, Rate 250 g/ha, evaluated after 13 days, read-out: Pre-Emergence Activity SETFA (100=total damage to plant; 0=no damage to plant)
Procedure, shortened: as §2

[18] = test system: Alopecurus myosuroides (ALOMY); assay: Example B post-emergence herbicidal activity, glasshouse pot test; settings: 312 h, rate 250 g/ha, evaluated after 13 days, read-out: Post-emergence activity ALOMY (100=total damage to plant; 0=no damage to plant)
Procedure, shortened: as §2

[19] = test system: Amaranthus retoflexus (AMARE); assay: as above; settings: Amaranthus retroflexus, 312 h, rate 250 g/ha, evaluated after 13 days, read-out: Post-emergence activity AMARE (100=total damage to plant; 0=no damage to plant)
Procedure, shortened: as §2

[20] = test system: Avena fatua (AVEFA); assay: as above; settings: 312 h, rate 250 g/ha, evaluated after 13 days, read-out: Post-emergence activity AVEFA (100=total damage to plant; 0=no damage to plant)
Procedure, shortened: as §2

[21] = test system: Echinochloa crus-galli (ECHCG); assay: as above; settings: 312 h, rate 250 g/ha, evaluated after 13 days, read-out: Post-emergence activity ECHCG (100=total damage to plant; 0=no damage to plant)
Procedure, shortened: as §2

[22] = test system: Setaria faberi (SETFA); assay: as above; settings: 312 h, rate 250 g/ha, evaluated after 13 days, read-out: Post-emergence activity SETFA (100=total damage to plant; 0=no damage to plant)
Procedure, shortened: as §2

SMILES: CCc1csc(CC)c1C1C(=O)[C@@H]2[C@H](C1=O)[C@H]1CC[C@@H]2O1 (stereo partly shown) [Compound T15]
- pest or weed control at 250 g/ha [1]: 70%
- pest or weed control at 250 g/ha [2]: 10%
- pest or weed control at 250 g/ha [3]: 30%
- pest or weed control at 250 g/ha [4]: 90%
- pest or weed control at 250 g/ha [5]: 10%
- pest or weed control at 250 g/ha [6]: 20%
- pest or weed control at 125 g/ha [7]: 50%
- pest or weed control at 125 g/ha [8]: 40%
- pest or weed control at 125 g/ha [9]: 40%
- pest or weed control at 125 g/ha [10]: 90%
- pest or weed control at 125 g/ha [11]: 40%
- pest or weed control at 125 g/ha [12]: 70%

SMILES: Cc1sc(-c2ccc(Cl)cc2)cc1C1=C(OC(=O)C(C)(C)C)[C@@H]2[C@H](C1=O)[C@H]1CC[C@@H]2O1 (racemic) [Compound P1]
- pest or weed control at 250 g/ha [1]: 30%
- pest or weed control at 250 g/ha [2]: 0%
- pest or weed control at 250 g/ha [3]: 0%
- pest or weed control at 250 g/ha [4]: 20%
- pest or weed control at 250 g/ha [5]: 30%
- pest or weed control at 250 g/ha [6]: 0%
- pest or weed control at 125 g/ha [7]: 70%
- pest or weed control at 125 g/ha [8]: 80%
- pest or weed control at 125 g/ha [9]: 80%
- pest or weed control at 125 g/ha [10]: 100%
- pest or weed control at 125 g/ha [11]: 60%
- pest or weed control at 125 g/ha [12]: 90%

SMILES: Cc1sc(-c2ccc(Cl)cc2)cc1C1=C(OC(=O)C(C)C)[C@@H]2[C@H](C1=O)[C@H]1CC[C@@H]2O1 (racemic) [Compound P2]
- pest or weed control at 250 g/ha [1]: 30%
- pest or weed control at 250 g/ha [2]: 0%
- pest or weed control at 250 g/ha [3]: 0%
- pest or weed control at 250 g/ha [4]: 50%
- pest or weed control at 250 g/ha [5]: 50%
- pest or weed control at 250 g/ha [6]: 0%
- pest or weed control at 125 g/ha [7]: 90%
- pest or weed control at 125 g/ha [8]: 90%
- pest or weed control at 125 g/ha [9]: 80%
- pest or weed control at 125 g/ha [10]: 100%
- pest or weed control at 125 g/ha [11]: 70%
- pest or weed control at 125 g/ha [12]: 80%

SMILES: CCc1sc(-c2ccc(Cl)cc2)nc1C1C(=O)[C@H]2[C@@H]3CC[C@@](C)(O3)[C@H]2C1=O (mixture of isomers) [Compound T25, 4-[2-(4-chloro-phenyl)-5-ethyl-thiazol-4-yl]-1-methyl-10-oxa-tricyclo[5.2.1.0*2,6*]decane-3,5-dione]
- pest or weed control at 250 g/ha [1]: 90%
- pest or weed control at 250 g/ha [2]: 90%
- pest or weed control at 250 g/ha [3]: 100%
- pest or weed control at 250 g/ha [4]: 100%
- pest or weed control at 250 g/ha [5]: 100%
- pest or weed control at 250 g/ha [6]: 100%
- pest or weed control at 125 g/ha [7]: 100%
- pest or weed control at 125 g/ha [8]: 100%
- pest or weed control at 125 g/ha [9]: 100%
- pest or weed control at 125 g/ha [10]: 100%
- pest or weed control at 125 g/ha [11]: 50%
- pest or weed control at 125 g/ha [12]: 90%

SMILES: CCc1sc(-c2ccc(Br)cc2)nc1C1C(=O)[C@@H]2[C@H](C1=O)[C@H]1CC[C@@H]2O1 (stereo partly shown) [Compound T29]
- pest or weed control at 250 g/ha [13]: 50%
- pest or weed control at 250 g/ha [14]: 20%
- pest or weed control at 250 g/ha [15]: 90%
- pest or weed control at 250 g/ha [16]: 90%
- pest or weed control at 250 g/ha [17]: 90%
- pest or weed control at 250 g/ha [18]: 100%
- pest or weed control at 250 g/ha [19]: 0%
- pest or weed control at 250 g/ha [20]: 100%
- pest or weed control at 250 g/ha [21]: 100%
- pest or weed control at 250 g/ha [22]: 100%

SMILES: CCc1sc(-c2ccc(Br)cc2C)nc1C1=C(OC(=O)c2ccc(Cl)cc2)[C@@H]2[C@H](C1=O)[C@H]1CC[C@@H]2O1 (racemic) [Compound P8]
- pest or weed control at 250 g/ha [13]: 90%
- pest or weed control at 250 g/ha [14]: 0%
- pest or weed control at 250 g/ha [15]: 30%
- pest or weed control at 250 g/ha [16]: 100%
- pest or weed control at 250 g/ha [17]: 100%
- pest or weed control at 250 g/ha [18]: 100%
- pest or weed control at 250 g/ha [19]: 0%
- pest or weed control at 250 g/ha [20]: 100%
- pest or weed control at 250 g/ha [21]: 100%
- pest or weed control at 250 g/ha [22]: 100%

SMILES: Cc1sc(-c2ccc(I)cc2)nc1C1C(=O)[C@@H]2[C@H](C1=O)[C@H]1CC[C@@H]2O1 (stereo partly shown) [Compound T33]
- pest or weed control at 250 g/ha [13]: 90%
- pest or weed control at 250 g/ha [14]: 0%
- pest or weed control at 250 g/ha [15]: 0%
- pest or weed control at 250 g/ha [16]: 100%
- pest or weed control at 250 g/ha [17]: 100%
- pest or weed control at 250 g/ha [18]: 100%
- pest or weed control at 250 g/ha [19]: 60%
- pest or weed control at 250 g/ha [20]: 100%
- pest or weed control at 250 g/ha [21]: 100%
- pest or weed control at 250 g/ha [22]: 100%

SMILES: Cc1cc(Br)ccc1-c1nc(C2C(=O)[C@@H]3[C@H](C2=O)[C@H]2CC[C@@H]3O2)c(C)s1 (stereo partly shown) [Compound T39]
- pest or weed control at 250 g/ha [13]: 70%
- pest or weed control at 250 g/ha [14]: 0%
- pest or weed control at 250 g/ha [15]: 90%
- pest or weed control at 250 g/ha [16]: 80%
- pest or weed control at 250 g/ha [17]: 90%
- pest or weed control at 250 g/ha [18]: 100%
- pest or weed control at 250 g/ha [19]: 0%
- pest or weed control at 250 g/ha [20]: 100%
- pest or weed control at 250 g/ha [21]: 100%
- pest or weed control at 250 g/ha [22]: 100%
